Results taken from publication PMC9304066, “H2S biogenesis by cystathionine beta-synthase: mechanism of inhibition by aminooxyacetic acid and unexpected role of serine” (Cellular and Molecular Life Sciences: CMLS, 2022).

Experiments:
[1] = biological target: T1, HsCBS (Homo sapiens, UniProt P35520, DEL516-525); experiment: CBL-LDH coupled-coupled CBS assay, HsCBS; type: biochemical; conditions: for Reduction of activity catalyzing condensation of Cys and Hcy yielding H2S: AOAA-inhibited HsCBS (200 µM AOAA); for Vmax / kcat: CBL-LDH coupled-coupled assay
T1 construct: purchased GenScript
T1 sequence (P35520 with tags, fused parts or gaps DEL516-525): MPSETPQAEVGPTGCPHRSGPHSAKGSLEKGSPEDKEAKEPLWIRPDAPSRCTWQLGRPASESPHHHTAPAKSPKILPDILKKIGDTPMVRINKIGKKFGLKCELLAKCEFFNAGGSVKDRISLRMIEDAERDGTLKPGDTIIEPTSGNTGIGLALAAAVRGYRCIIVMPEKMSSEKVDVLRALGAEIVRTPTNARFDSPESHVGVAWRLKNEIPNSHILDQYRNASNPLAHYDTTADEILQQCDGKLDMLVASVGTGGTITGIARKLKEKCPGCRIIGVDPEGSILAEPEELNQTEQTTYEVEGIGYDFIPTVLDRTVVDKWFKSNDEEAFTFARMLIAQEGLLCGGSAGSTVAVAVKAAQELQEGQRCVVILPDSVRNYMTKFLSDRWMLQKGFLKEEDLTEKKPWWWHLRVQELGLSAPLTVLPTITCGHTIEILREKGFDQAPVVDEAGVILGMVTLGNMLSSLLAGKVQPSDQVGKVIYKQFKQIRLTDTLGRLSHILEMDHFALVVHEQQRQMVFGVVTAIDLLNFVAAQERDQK
Description: CBS coupled-coupled assay. CBS canonical activity utilizing Ser and Hcy was determined using cystathionine beta-lyase (CBL) and lactate-dehydrogenase (LDH) coupled-coupled assay as described previously with a few modifications. Native L-LDH from rabbit muscle was purchased from Sigma (catalog no. L2500) and recombinant CBL was purchased from Creative Enzymes (catalog no. NATE-1146). In a final volume of 150 µL, the reaction mixture contained 50 mM Tris–HCl pH 8.9, 20 µM PLP, 500 µM NADH, 1.3 µM LDH, 0.1 µM CBL, 0–20 mM Ser (or 0–50 mM Cys) and 500 ng of tScCBS or HsCBS. Assays with HsCBS were carried out in the absence or presence of 500 µM CBS allosteric activator S-adenosylmethionine (SAM). The reaction was triggered by the addition of 2 mM Hcy and the oxidation of NADH to NAD^+ was followed by monitoring the decrease in absorbance at 340 nm over time (ε340 = 6220 M^−1.cm^−1). […] All measurements were performed in triplicates using Tecan Infinite 200 PRO microplate reader. Kinetic data were analyzed using GraphPad Prism software.

[2] = biological target: T1, HsCBS; experiment: CBS H2S production assay (AzMC fluorometric), HsCBS; type: biochemical; conditions: for IC50: AzMC assay, 5 mM Cys + 2 mM Hcy
Description: CBS H2S production assay. H2S-producing activity of CBS, utilizing Cys and Hcy, was determined using a fluorometric assay employing the H2S-selective fluorescent probe 7-azido-4-methylcoumarin (AzMC) as described previously. The reaction mixture in a total volume of 200 µL contained 50 mM Tris–HCl pH 8.6, 5 μM PLP, 2 mM Hcy, 10 μM AzMC and 500 ng tScCBS or HsCBS. The plate was incubated for 10 min at 37°C and the enzymatic activity was triggered by adding 0–50 mM Cys. The fluorescence of the mixtures at 450 nm (excited at 365 nm) was followed for 2 h at 37°C. All measurements were performed in triplicates using Tecan Infinite 200 PRO microplate reader. Kinetic data were analyzed using GraphPad Prism software.

[3] = tested on: HEK293 cells; experiment: Bioenergetic analysis (Seahorse XFe24 flux analyzer); type: cell-based, human
Description: Bioenergetic analysis. The Seahorse XFe24 flux analyzer (Agilent Technologies, Santa Clara, CA, USA) was used to estimate mitochondrial respiration of HEK293 cells. Cells were seeded in Seahorse XFe24 Cell Culture Microplates at density of 15,000 cells/well in a total volume of 200 µl, incubated for 2 h, followed by treatment for 24 h as described above for H2S live imaging. Next day, culture medium was replaced for Seahorse XF DMEM supplemented with 2 mM glutamine, 1 mM pyruvate and 10 mM glucose. The microplate was then incubated in a CO2-free incubator at 37°C for 1 h, to allow temperature and pH equilibration, as recommended by the manufacturer. The assay protocol included two measurements of basal values of oxygen consumption rate (OCR), followed by the injection of 1 µM oligomycin, used to evaluate ATP generation rate. Subsequently, the mitochondrial oxidative phosphorylation uncoupler FCCP (0.2 µM) was added to estimate maximal mitochondrial respiratory capacity. Lastly, 0.5 µM of rotenone and antimycin A (each) were injected to inhibit the electron flux through the complex I and III, respectively, aiming to detect the extra-mitochondrial OCR. Data were analyzed with Wave package (version 2.6; Agilent Technologies, Santa Clara, CA, USA) and GraphPad Prism 8 (GraphPad Software Inc.; San Diego, CA, USA).

[4] = tested on: HEK293 cells; experiment: Detection of H2S production in live cells (AzMC imaging); type: cell-based, human
Description: Cell culture. The human embryonic kidney cell line HEK293 (ATCC CRL-1573) was cultured in Dulbecco’s Modified Eagle Medium (DMEM) containing 4.5 g/L glucose. The culture medium was supplemented with 10% (v/v) heat-inactivated fetal bovine serum, 2 mM Glutamax, non-essential amino acids, 100 U/ml penicillin and 100 μg/ml streptomycin. Cells were grown in a humidified incubator at 37 °C and 5% CO2 atmosphere. Cell viability and proliferation were assessed using MTT and BrdU assay, respectively, essentially as described previously. Detection of H2S production in live cells. Cells were seeded in black 96-well plates with optical bottom (15,000 cells/well). The following morning, the cells were treated with 150 µM AOAA, 1/3/10 mM Ser or their combination for 24 h. After that the culture medium was replaced with Hank’s Balanced Salt Solution (HBSS) buffer supplemented with 100 μM AzMC and further incubated for 1 h. Dye’s specific fluorescence was visualized using a Leica DFC360 FX microscope and images were captured with Leica Application Suite X software (Leica Biosystems, Germany). Images were analyzed with ImageJ software (version 1.8.0; NIH, Bethesda, MD, USA) and data were analyzed using GraphPad Prism 8 (GraphPad Software Inc.; San Diego, CA, USA).

Row | Vmax ([1]; HsCBS + SAM) | kcat ([1]; HsCBS + SAM) | Vmax ([1]; HsCBS – SAM) | kcat ([1]; HsCBS – SAM) | Recovery of activity of AOAA-inhibited enzyme ([2]; HsCBS in the absence and presence of SAM, 1 mM Ser after 200 µM AOAA incubation, then desalting) | SMILES | Reduction of activity catalyzing condensation of Cys and Hcy yielding H2S ([1]; absence of SAM) | Reduction of activity catalyzing condensation of Cys and Hcy yielding H2S ([1]; presence of SAM) | Effect on condensation of Ser and Hcy (canonical reaction) ([1]; HsCBS ± 500 µM SAM inhibited by 200 µM AOAA, 5 mM Ser + 2 mM Hcy) | IC50 ([2]; HsCBS in the absence of SAM) | IC50 ([2]; HsCBS in the presence of 500 µM SAM) | Bioenergetics parameters (basal respiration, maximal respiration, ATP production) ([3]; HEK293, 150 µM AOAA, 24 h) | H2S-producing activity, % of the controls ([4]; HEK293, 150 µM AOAA, 24 h) | Impact on mitochondrial function ([3]; HEK293, 1, 3 and 10 mM Ser alone, 24 h) | Cellular bioenergetics compared to untreated controls ([3]; HEK293 inhibited by 150 µM AOAA, supplemented with 1, 3 or 10 mM Ser) | Reduction of cellular H2S productivity ([4]; HEK293, 10 mM Ser in growth medium) | Reduction of H2S production ([4]; HEK293, Ser added to medium (1/3/10 mM, 24 h), concentration-dependent, 'up to') | Recovery of H2S-producing capacity, % of control WT activity ([4]; HEK293 inhibited by 150 µM AOAA, with 1, 3 or 10 mM Ser)
1 | – | – | – | – | – | NOCC(=O)O [AOAA, aminooxyacetic acid] | 63% | 71% | not impaired | 12.8 µM | 10.9 µM | significant decrease | ~ 15% | – | – | – | – | –
2 | 156.3 ± 7.6 µmol/h/mg | 2.7 ± 0.1 s⁻¹ | 37.2 ± 1.5 µmol/h/mg | 0.63 ± 0.06 s⁻¹ | substantial recovery | N[C@@H](CO)C(=O)O [Ser, serine] | – | – | – | – | – | – | – | did not have any significant impact | correction or normalization | ~ 29% | ~ 30% | 82–89%
